Assay results taken from ChEMBL document CHEMBL2146422, “Viequeamide A, a cytotoxic member of the kulolide superfamily of cyclic depsipeptides from a marine button cyanobacterium” (2012).
Active and inactive are the calls of the source. No cut-off for these calls is given here. *1 amine or outer side, *2 acyl side, *3 side chain or, on linkers, in order; H or OH if unused. Where a SMILES comes first, the peptide text is derived from it. Bridges are numbered along the chain shown (N, C = ends). [ ]: non-standard residue; d: D form. X1 = C#CCCC[C@H](O[*:2])C(C)(C)C(=O)[*:1]; X3 = C=CCCC[C@H](O[*:2])C(C)(C)C(=O)[*:1]; X2 = CCCCC[C@H](O[*:2])C(C)(C)C(=O)[*:1]; Hmp(2R,3S) = CC[C@H](C)[C@@H](O)C(=O)O; PhLac = O=C(O)[C@@H](O)Cc1ccccc1; NMeV = CN[C@H](C(=O)O)C(C)C; NMeA = CN[C@@H](C)C(=O)O

Legend:
NCI-H460 [1] = assay: Cytotoxicity against human H460 cells at 30 ug/mL after 48 hrs by MTT assay; format: functional, cell-based
NCI-H460 [2] = assay: Cytotoxicity against human H460 cells after 48 hrs by MTT assay; format: functional; settings: NCI-H460, 48 h, read-out: LD50 (the source's name)

Compound: C#CCCC[C@@H]1OC(=O)[C@H](C(C)C)NC(=O)[C@H](C)N(C)C(=O)[C@@H]2CCCN2C(=O)[C@H](Cc2ccccc2)OC(=O)[C@H](C(C)C)N(C)C(=O)[C@H](C(C)C)NC(=O)C1(C)C (V[NMeV][PhLac]P[NMeA]V; linker N-C via X1)
- Activity (NCI-H460 [1]): inactive

Compound: CCCCC[C@@H]1OC(=O)[C@H](C(C)C)NC(=O)[C@H](C)N(C)C(=O)[C@@H]2CCCN2C(=O)[C@H](Cc2ccccc2)OC(=O)[C@H](C(C)C)N(C)C(=O)[C@H](C(C)C)NC(=O)C1(C)C (V[NMeV][PhLac]P[NMeA]V; linker N-C via X2)
- Activity (NCI-H460 [1]): inactive

Compound: C#CCCC[C@@H]1OC(=O)[C@H]([C@@H](C)O)NC(=O)[C@H](C(C)C)N(C)C(=O)[C@@H]2CCCN2C(=O)[C@@H]([C@@H](C)CC)OC(=O)[C@H](C(C)C)N(C)C(=O)[C@H](C(C)C)NC(=O)C1(C)C [VIEQUEAMIDE A] (V[NMeV][Hmp(2R,3S)]P[NMeV]T; linker N-C via X1)
- CC50 (NCI-H460 [2]): 0.06 µM

Compound: C=CCCC[C@@H]1OC(=O)[C@H](C(C)C)NC(=O)[C@H](C)N(C)C(=O)[C@@H]2CCCN2C(=O)[C@H](Cc2ccccc2)OC(=O)[C@H](C(C)C)N(C)C(=O)[C@H](C(C)C)NC(=O)C1(C)C (V[NMeV][PhLac]P[NMeA]V; linker N-C via X3)
- Activity (NCI-H460 [1]): inactive
